From PubChem BioAssay (NCI)
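How tested: cells in 96-well plates exposed to compound for 48 hours at five concentrations. Abbreviation: GI50, concentration required for 50% inhibition of growth. TGI: total growth inhibition.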

Legend:
Assay in all cases: NCI tumour cell line growth inhibition, 48 h
MALME-3M melanoma = tested on: MALME-3M melanoma
OVCAR-3 ovarian = tested on: OVCAR-3 ovarian
RXF 393 renal = tested on: RXF 393 renal
HL-60(TB) leukemia = tested on: HL-60(TB) leukemia
UACC-257 melanoma = tested on: UACC-257 melanoma
MDA-N = tested on: MDA-N
DU-145 prostate = tested on: DU-145 prostate
EKVX NSCLC = tested on: EKVX NSCLC
HS 578T breast = tested on: HS 578T breast
RPMI-8226 leukemia = tested on: RPMI-8226 leukemia
K-562 leukemia = tested on: K-562 leukemia
OVCAR-5 ovarian = tested on: OVCAR-5 ovarian
SR leukemia = tested on: SR leukemia
A549 NSCLC = tested on: A549 NSCLC
HCC-2998 colon = tested on: HCC-2998 colon
HOP-62 NSCLC = tested on: HOP-62 NSCLC
SK-MEL-5 melanoma = tested on: SK-MEL-5 melanoma
LOX IMVI melanoma = tested on: LOX IMVI melanoma
SF-539 CNS = tested on: SF-539 CNS
NCI/ADR-RES ovarian = tested on: NCI/ADR-RES ovarian
OVCAR-8 ovarian = tested on: OVCAR-8 ovarian
SK-MEL-28 melanoma = tested on: SK-MEL-28 melanoma
CCRF-CEM leukemia = tested on: CCRF-CEM leukemia
SK-MEL-2 melanoma = tested on: SK-MEL-2 melanoma
UO-31 renal = tested on: UO-31 renal
NCI-H226 lung = tested on: NCI-H226 lung
HOP-92 NSCLC = tested on: HOP-92 NSCLC
786-0 renal = tested on: 786-0 renal
MDA-MB-435 = tested on: MDA-MB-435
SN12C renal = tested on: SN12C renal
SK-OV-3 ovarian = tested on: SK-OV-3 ovarian
CAKI-1 renal = tested on: CAKI-1 renal
UACC-62 melanoma = tested on: UACC-62 melanoma
BT-549 breast = tested on: BT-549 breast
HT29 colon = tested on: HT29 colon
SF-268 CNS = tested on: SF-268 CNS
COLO 205 colon = tested on: COLO 205 colon
SF-295 CNS = tested on: SF-295 CNS
IGROV1 ovarian = tested on: IGROV1 ovarian
MDA-MB-231 breast = tested on: MDA-MB-231 breast
MOLT-4 leukemia = tested on: MOLT-4 leukemia
TK-10 renal = tested on: TK-10 renal
MCF7 breast = tested on: MCF7 breast
M14 melanoma = tested on: M14 melanoma
SW-620 colon = tested on: SW-620 colon
A498 renal = tested on: A498 renal
NCI-H460 lung = tested on: NCI-H460 lung
T-47D breast = tested on: T-47D breast
SNB-75 CNS = tested on: SNB-75 CNS
ACHN renal = tested on: ACHN renal
U251 CNS = tested on: U251 CNS
HCT-116 colon = tested on: HCT-116 colon
NCI-H23 lung = tested on: NCI-H23 lung
PC-3 prostate = tested on: PC-3 prostate
KM12 colon = tested on: KM12 colon
OVCAR-4 ovarian = tested on: OVCAR-4 ovarian
HCT-15 colon = tested on: HCT-15 colon
SNB-19 CNS = tested on: SNB-19 CNS
NCI-H522 lung = tested on: NCI-H522 lung

With `CCC[n+]1cc2cc(OC)c(OC)cc2c2c1-c1cc3c(cc1C2)OCO3` the GI50 (MALME-3M melanoma) was 1.65 µM, the TGI (MALME-3M melanoma) was 4.01 µM and the GI50 (OVCAR-3 ovarian) was 0.955 µM. For the same molecule, the TGI (OVCAR-3 ovarian) was 5.78 µM, the GI50 (RXF 393 renal) was 17 µM and the TGI (RXF 393 renal) was 35.7 µM. It also gave a GI50 (HL-60(TB) leukemia) of 11 µM, a TGI (HL-60(TB) leukemia) of over 54.1 µM and a GI50 (UACC-257 melanoma) of 1.19 µM. For the same molecule, the TGI (UACC-257 melanoma) was 3.87 µM, the GI50 (MDA-N) was 2.83 µM and the TGI (MDA-N) was 11 µM. For the same molecule, the GI50 (DU-145 prostate) was 7.82 µM, the TGI (DU-145 prostate) was 38.6 µM and the GI50 (EKVX NSCLC) was 11.9 µM. For the same molecule, the TGI (EKVX NSCLC) was 48 µM, the GI50 (HS 578T breast) was 1.63 µM and the TGI (HS 578T breast) was 13.6 µM. It also gave a GI50 (RPMI-8226 leukemia) of 2.34 µM, a TGI (RPMI-8226 leukemia) of 16 µM and a GI50 (K-562 leukemia) of 3.03 µM. It also gave a TGI (K-562 leukemia) of over 20.5 µM, a GI50 (OVCAR-5 ovarian) of 32.9 µM and a TGI (OVCAR-5 ovarian) of 67.8 µM. The GI50 (SR leukemia) was 2.18 µM, the TGI (SR leukemia) was 26.2 µM and the GI50 (A549 NSCLC) was 18.3 µM. It also gave a TGI (A549 NSCLC) of 35.5 µM, a GI50 (HCC-2998 colon) of 3.99 µM and a TGI (HCC-2998 colon) of 14.9 µM. The GI50 (HOP-62 NSCLC) was 3.92 µM, the TGI (HOP-62 NSCLC) was 19.7 µM and the GI50 (SK-MEL-5 melanoma) was 2.09 µM. The TGI (SK-MEL-5 melanoma) was 7.11 µM, the GI50 (LOX IMVI melanoma) was 8.25 µM and the TGI (LOX IMVI melanoma) was over 62.2 µM. It also gave a GI50 (SF-539 CNS) of 0.992 µM, a TGI (SF-539 CNS) of 6.34 µM and a GI50 (NCI/ADR-RES ovarian) of 35.2 µM. The TGI (NCI/ADR-RES ovarian) was over 100 µM, the GI50 (OVCAR-8 ovarian) was 2.18 µM and the TGI (OVCAR-8 ovarian) was 6.23 µM. The GI50 (SK-MEL-28 melanoma) was 3.03 µM, the TGI (SK-MEL-28 melanoma) was 10.6 µM and the GI50 (CCRF-CEM leukemia) was 2.53 µM. It also gave a GI50 (SK-MEL-2 melanoma) of 2.65 µM, a TGI (SK-MEL-2 melanoma) of 9.18 µM and a GI50 (UO-31 renal) of 13.1 µM. It also gave a TGI (UO-31 renal) of 35.1 µM, a GI50 (NCI-H226 lung) of 1.03 µM and a TGI (NCI-H226 lung) of 8.13 µM. The GI50 (HOP-92 NSCLC) was 10.1 µM, the TGI (HOP-92 NSCLC) was 40.6 µM and the GI50 (786-0 renal) was 1.11 µM. The TGI (786-0 renal) was 12.3 µM, the GI50 (MDA-MB-435) was 3.29 µM and the TGI (MDA-MB-435) was 12.4 µM. The GI50 (SN12C renal) was 0.638 µM, the TGI (SN12C renal) was 6.84 µM and the GI50 (SK-OV-3 ovarian) was 25.6 µM. It also gave a TGI (SK-OV-3 ovarian) of 52.3 µM, a GI50 (CAKI-1 renal) of 7.14 µM and a TGI (CAKI-1 renal) of 44.2 µM. For the same molecule, the GI50 (UACC-62 melanoma) was 2.06 µM, the TGI (UACC-62 melanoma) was 5.77 µM and the GI50 (BT-549 breast) was 0.658 µM. The TGI (BT-549 breast) was 10.6 µM, the GI50 (HT29 colon) was 5.03 µM and the TGI (HT29 colon) was over 34.6 µM. It also gave a GI50 (SF-268 CNS) of 0.568 µM, a TGI (SF-268 CNS) of 5.84 µM and a GI50 (COLO 205 colon) of 1.61 µM. For the same molecule, the TGI (COLO 205 colon) was 8.52 µM, the GI50 (SF-295 CNS) was 8.1 µM and the TGI (SF-295 CNS) was 26.6 µM. The GI50 (IGROV1 ovarian) was 2.27 µM, the TGI (IGROV1 ovarian) was 12.6 µM and the GI50 (MDA-MB-231 breast) was 4.71 µM. The TGI (MDA-MB-231 breast) was 15.4 µM, the GI50 (MOLT-4 leukemia) was 1.92 µM and the TGI (MOLT-4 leukemia) was 11.4 µM. For the same molecule, the GI50 (TK-10 renal) was 22.6 µM, the TGI (TK-10 renal) was 58.9 µM and the GI50 (MCF7 breast) was 2.59 µM. For the same molecule, the TGI (MCF7 breast) was over 33.8 µM, the GI50 (M14 melanoma) was 7.64 µM and the TGI (M14 melanoma) was 22 µM. For the same molecule, the GI50 (SW-620 colon) was 2.83 µM, the TGI (SW-620 colon) was 23.7 µM and the GI50 (A498 renal) was 17.6 µM. For the same molecule, the TGI (A498 renal) was 50.9 µM, the GI50 (NCI-H460 lung) was 2.98 µM and the TGI (NCI-H460 lung) was 11.3 µM. It also gave a GI50 (T-47D breast) of 0.583 µM, a TGI (T-47D breast) of 3.92 µM and a GI50 (SNB-75 CNS) of 0.843 µM. It also gave a TGI (SNB-75 CNS) of 4.52 µM, a GI50 (ACHN renal) of 9.45 µM and a TGI (ACHN renal) of 36.7 µM. For the same molecule, the GI50 (U251 CNS) was 0.211 µM, the TGI (U251 CNS) was 3.57 µM and the GI50 (HCT-116 colon) was 3.39 µM. It also gave a TGI (HCT-116 colon) of 23.6 µM, a GI50 (NCI-H23 lung) of 2.34 µM and a TGI (NCI-H23 lung) of 13.2 µM. It also gave a GI50 (PC-3 prostate) of 4.7 µM, a TGI (PC-3 prostate) of 20.7 µM and a GI50 (KM12 colon) of 2.12 µM. For the same molecule, the TGI (KM12 colon) was 7.03 µM, the GI50 (OVCAR-4 ovarian) was 4.84 µM and the TGI (OVCAR-4 ovarian) was 19.2 µM. It also gave a GI50 (HCT-15 colon) of 46.9 µM, a TGI (HCT-15 colon) of over 100 µM and a GI50 (SNB-19 CNS) of 0.254 µM. It also gave a TGI (SNB-19 CNS) of 1.68 µM, a GI50 (NCI-H522 lung) of 0.0792 µM and a TGI (NCI-H522 lung) of 1.71 µM.
